Measured values: ChEMBL document CHEMBL1201862, “PubChem BioAssay data set” (2004)
Activity calls are given as the source filed them.

Tests used:
Escherichia coli = test: microbe, parasite or virus in culture
[1] = biological target: Dual specificity tyrosine-phosphorylation-regulated kinase 1A (Rattus norvegicus, UniProt Q63470); assay type: biochemical, Homo sapiens
Cytochrome P450 2C9 = Cytochrome P450 2C9 (Homo sapiens, UniProt P11712)
Cytochrome P450 2C19 = Cytochrome P450 2C19 (Homo sapiens, UniProt P33261); test: Cytochrome panel assay with activity outcomes. Panel member name: p450-cyp2c19 Compounds with AC50 equal or less than 10 uM are considered active; assay type: functional; settings: read-out: AC50
Cytochrome P450 2C19, sequence (P33261 whole entry): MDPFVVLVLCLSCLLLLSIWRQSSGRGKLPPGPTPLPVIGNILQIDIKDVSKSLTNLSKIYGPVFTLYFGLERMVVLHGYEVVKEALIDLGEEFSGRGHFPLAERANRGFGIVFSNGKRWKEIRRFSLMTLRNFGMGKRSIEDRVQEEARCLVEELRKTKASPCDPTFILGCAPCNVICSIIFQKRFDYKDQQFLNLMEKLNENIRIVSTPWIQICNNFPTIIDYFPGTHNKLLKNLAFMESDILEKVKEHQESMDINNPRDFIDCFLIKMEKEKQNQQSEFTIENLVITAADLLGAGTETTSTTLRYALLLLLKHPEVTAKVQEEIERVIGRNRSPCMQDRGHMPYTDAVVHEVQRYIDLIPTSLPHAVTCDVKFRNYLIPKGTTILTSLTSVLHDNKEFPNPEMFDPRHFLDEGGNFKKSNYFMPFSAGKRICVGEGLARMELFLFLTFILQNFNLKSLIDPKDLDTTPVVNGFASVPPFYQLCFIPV

[2] = biological target: T1, Zinc finger protein mex-5 (Caenorhabditis elegans, UniProt Q9XUB2); test: MEX-5/TCR-2 RNA interaction inhibitors, dose response, biochemical, C. elegans, fluorescence polarization (AID 1960)
T1 sequence (Q9XUB2 whole entry): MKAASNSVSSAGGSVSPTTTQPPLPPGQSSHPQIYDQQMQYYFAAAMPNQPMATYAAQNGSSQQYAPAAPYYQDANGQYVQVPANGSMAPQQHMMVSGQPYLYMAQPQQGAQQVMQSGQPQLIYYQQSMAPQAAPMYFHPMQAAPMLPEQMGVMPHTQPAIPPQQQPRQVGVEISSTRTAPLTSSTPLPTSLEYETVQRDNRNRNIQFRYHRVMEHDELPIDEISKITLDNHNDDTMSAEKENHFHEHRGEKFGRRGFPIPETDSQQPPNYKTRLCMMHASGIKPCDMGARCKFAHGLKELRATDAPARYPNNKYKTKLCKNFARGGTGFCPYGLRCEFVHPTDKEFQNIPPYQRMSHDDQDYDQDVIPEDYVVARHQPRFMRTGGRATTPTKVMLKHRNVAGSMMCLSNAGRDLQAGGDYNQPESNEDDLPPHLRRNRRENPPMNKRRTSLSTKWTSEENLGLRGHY

Aminopeptidase N = biological target: T2, Aminopeptidase N (Plasmodium falciparum FcB1/Columbia, UniProt O96935); test: P. falciparum M1AAP inhibitors, biochemical, fluorogenic H-Leu-NHMec substrate, 1536-well (AID 1445); design: species or system Plasmodium falciparum 3D7, 3D7
T2 sequence (O96935 whole entry): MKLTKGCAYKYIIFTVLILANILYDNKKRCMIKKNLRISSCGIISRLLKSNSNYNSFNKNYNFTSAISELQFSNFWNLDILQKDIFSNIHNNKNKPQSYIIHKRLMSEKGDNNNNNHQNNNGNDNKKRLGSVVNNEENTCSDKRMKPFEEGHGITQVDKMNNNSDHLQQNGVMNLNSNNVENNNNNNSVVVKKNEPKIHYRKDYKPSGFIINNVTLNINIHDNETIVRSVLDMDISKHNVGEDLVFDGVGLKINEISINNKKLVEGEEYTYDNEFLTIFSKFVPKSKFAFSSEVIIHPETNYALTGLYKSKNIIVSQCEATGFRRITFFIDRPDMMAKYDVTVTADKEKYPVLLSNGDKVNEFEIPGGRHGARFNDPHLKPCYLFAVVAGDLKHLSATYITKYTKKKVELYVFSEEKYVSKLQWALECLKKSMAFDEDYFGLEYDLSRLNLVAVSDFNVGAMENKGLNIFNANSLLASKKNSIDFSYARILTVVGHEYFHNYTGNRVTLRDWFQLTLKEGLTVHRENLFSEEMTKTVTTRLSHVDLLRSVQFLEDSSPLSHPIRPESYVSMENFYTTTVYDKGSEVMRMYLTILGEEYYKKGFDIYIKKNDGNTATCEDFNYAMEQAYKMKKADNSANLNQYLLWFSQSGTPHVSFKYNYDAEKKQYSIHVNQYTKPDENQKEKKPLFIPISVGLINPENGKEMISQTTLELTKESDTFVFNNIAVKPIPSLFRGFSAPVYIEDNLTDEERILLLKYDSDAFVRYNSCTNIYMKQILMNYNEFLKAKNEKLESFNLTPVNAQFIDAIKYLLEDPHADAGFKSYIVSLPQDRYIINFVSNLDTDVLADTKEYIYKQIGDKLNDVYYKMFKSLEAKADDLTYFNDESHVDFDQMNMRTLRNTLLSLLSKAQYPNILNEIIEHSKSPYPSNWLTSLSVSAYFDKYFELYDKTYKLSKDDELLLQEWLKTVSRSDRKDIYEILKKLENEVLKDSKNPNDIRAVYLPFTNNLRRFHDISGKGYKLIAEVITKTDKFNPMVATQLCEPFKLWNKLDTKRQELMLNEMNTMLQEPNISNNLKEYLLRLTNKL

Caspase-6 = biological target: T3, Caspase-6 (Homo sapiens, UniProt P55212); test: human caspase-6 inhibitors, dose response, biochemical, VEID-R110 fluorescence, cherry-pick (AID 720632)
T3 sequence (P55212 whole entry): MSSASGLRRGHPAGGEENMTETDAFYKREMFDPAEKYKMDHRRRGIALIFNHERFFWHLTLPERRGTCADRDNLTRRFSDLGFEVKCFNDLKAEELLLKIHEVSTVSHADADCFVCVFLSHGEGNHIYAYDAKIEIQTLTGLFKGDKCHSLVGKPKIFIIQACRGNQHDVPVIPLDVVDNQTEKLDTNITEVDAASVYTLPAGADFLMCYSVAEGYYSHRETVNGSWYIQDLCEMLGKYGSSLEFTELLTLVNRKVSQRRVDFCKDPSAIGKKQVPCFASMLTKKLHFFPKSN

[3] = biological target: FAD-linked sulfhydryl oxidase ALR (Homo sapiens, UniProt P55789); test: inhibitors of human ALR sulfhydryl oxidase, dose response, biochemical, H2O2 detection, luminescence, cherry-pick (AID 493248)
FAD-linked sulfhydryl oxidase ALR, sequence (P55789 whole entry, the tested form may be a part): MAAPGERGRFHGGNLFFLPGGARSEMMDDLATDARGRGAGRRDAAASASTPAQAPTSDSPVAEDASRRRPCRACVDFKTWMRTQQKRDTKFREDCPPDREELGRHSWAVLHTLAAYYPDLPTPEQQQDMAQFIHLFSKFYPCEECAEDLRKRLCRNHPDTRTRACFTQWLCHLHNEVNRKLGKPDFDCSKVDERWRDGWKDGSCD

[4] = biological target: T4, RNA-binding protein pos-1 (Caenorhabditis elegans, UniProt G5EF15); test: inhibitors of POS-1/mex-3 RNA binding, dose response, biochemical, fluorescence polarization (AID 1964);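 note: purified POS-1 fused to maltose binding protein made in E. coli; potency of compounds blocking POS-1 binding to fluorescent RNA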
T4 sequence (G5EF15 whole entry): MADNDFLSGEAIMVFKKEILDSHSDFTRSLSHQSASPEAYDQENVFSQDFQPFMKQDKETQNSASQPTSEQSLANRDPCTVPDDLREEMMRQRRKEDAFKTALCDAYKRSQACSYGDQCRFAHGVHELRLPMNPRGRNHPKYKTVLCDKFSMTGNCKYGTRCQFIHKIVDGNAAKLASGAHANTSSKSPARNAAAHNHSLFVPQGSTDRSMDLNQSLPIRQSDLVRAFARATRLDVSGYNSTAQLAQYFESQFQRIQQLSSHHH

[5] = biological target: T5, RNA-editing ligase 1, mitochondrial (Trypanosoma brucei brucei, UniProt P86926); test: TbREL1 ligase inhibitors, dose response, biochemical, fluorescence, Trypanosoma brucei (AID 1117295); assay type: functional
T5 sequence (P86926 whole entry): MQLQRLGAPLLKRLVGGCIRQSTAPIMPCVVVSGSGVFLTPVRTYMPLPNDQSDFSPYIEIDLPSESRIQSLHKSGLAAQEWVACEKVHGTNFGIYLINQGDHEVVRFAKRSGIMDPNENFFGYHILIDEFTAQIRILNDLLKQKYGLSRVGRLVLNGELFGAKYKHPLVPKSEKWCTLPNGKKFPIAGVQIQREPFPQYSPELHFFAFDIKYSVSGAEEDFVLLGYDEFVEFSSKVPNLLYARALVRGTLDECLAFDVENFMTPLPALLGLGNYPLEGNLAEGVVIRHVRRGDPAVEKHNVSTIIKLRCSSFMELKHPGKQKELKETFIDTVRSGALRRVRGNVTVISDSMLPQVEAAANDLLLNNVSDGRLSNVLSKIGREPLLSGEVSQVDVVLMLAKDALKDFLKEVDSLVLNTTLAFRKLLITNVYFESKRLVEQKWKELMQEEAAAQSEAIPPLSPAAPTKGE

Cytochrome P450 2C9, sequence (P11712 whole entry): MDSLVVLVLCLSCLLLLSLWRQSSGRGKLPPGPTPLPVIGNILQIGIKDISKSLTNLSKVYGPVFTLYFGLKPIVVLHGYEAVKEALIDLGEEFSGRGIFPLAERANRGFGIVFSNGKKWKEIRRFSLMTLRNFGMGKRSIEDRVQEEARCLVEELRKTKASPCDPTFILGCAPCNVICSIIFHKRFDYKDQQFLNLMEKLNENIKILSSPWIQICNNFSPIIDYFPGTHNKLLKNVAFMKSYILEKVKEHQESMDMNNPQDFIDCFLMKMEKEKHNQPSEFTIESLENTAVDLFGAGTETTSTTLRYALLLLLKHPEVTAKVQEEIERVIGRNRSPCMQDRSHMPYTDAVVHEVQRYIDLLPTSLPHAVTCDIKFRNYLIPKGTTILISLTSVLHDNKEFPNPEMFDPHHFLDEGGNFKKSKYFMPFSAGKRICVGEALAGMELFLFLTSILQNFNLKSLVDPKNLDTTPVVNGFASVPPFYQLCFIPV

Compound	AC50 (Escherichia coli)	AC50 [1]	AC50 (Cytochrome P450 2C9)	AC50 (Cytochrome P450 2C19)	EC50 [2]	IC50 (Aminopeptidase N)	AC50 (Caspase-6)	AC50 [3]	EC50 [4]	IC50 [5]
COc1ccc(C(=O)Nc2cnn(Cc3ccc(Cl)cc3)c2)cc1OC	96.5 µM (active)	–	–	–	–	–	–	–	–	–
NC1=NC(=O)/C(=C/c2cccs2)S1	–	1.21 µM (active)	inconclusive	25.1 µM (inconclusive)	–	–	–	–	–	–
COc1c(O)cc2oc(-c3ccc(O)c(O)c3)cc(=O)c2c1O [EUPAFOLIN]	–	12.7 µM (active)	–	–	36 µM (active)	15.6 µM (active)	29.3 µM (active)	0.23 µM (active)	93.1 µM (active)	> 96.6 µM (inactive)
